Assay results published in patent US10857105B2, “Compounds and compositions for intracellular delivery of therapeutic agents” (ModernaTX, Inc., priority 2017, dated 2020).

Assays:
[1] = Particle size and polydispersity index of nanoparticle compositions (Zetasizer Nano ZS); type: physicochemical
Summary of the method: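 Size and PDI measured by Zetasizer Nano ZS in 1×PBS (zeta potential in 15 mM PBS). Lipid nanoparticles contained test ionizable lipid:DSPC:cholesterol:PEG-DMG at 50:10:38.5:1.5 mol % with N1-methyl-pseudouridine mRNA encoding luciferase or hEPO.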

luciferase (Luc) mRNA [2] = experiment: Luciferase expression after intramuscular administration to mice; type: in vivo; conditions: for Novel lipid/MC3 expression ratio, i.m. Luc / Total flux 6 hours after intramuscular administration, 0.01 mpk Dose: intramuscular; for Novel lipid/MC3 expression ratio, i.m. Luc: 6 hr. time point, relative to MC3 formulation; for Total flux 6 hours after intramuscular administration, 0.01 mpk Dose: Luc mRNA
From the text: The numbers 1-7 in this figure correspond to MC3, Compounds 168-170, and 173-175 respectively.
FIGS. 18A and 18B show the results of luciferase expression measured upon intramuscular administration of various nanoparticle compositions to CD-1 mice at 0.01 mpk. FIG. 18A is a bar graph showing total flux at 6 hr after administration. The numbers above each bar indicate the expression ratio relative to MC3. […] Numbers 1-11 in the Figures refer to compositions containing the following: 1: MC3, 2: Compound 143, 3: Compound 49; 4: Compound 113; 5: Compound 61; 6: Compound 72; 7: Compound 75; 8: Compound 71; 9: Compound 128; 10: Compound 156; 11: Compound 157.
The numbers 1-9 in this figure correspond to MC3, and Compounds 178, 181, 182, 218, 198, 200, 233, and 239, respectively.
The total flux (measured by area under the curve, AUC) induced by administration of a formulation including a given lipid relative to that induced by administration of a formulation including MC3 was also measured for several lipids.
Sample formulations including modified luciferase (Luc) mRNA prepared and administered intramuscularly and the resulting expression and immunogenicity were evaluated simultaneously. Formulations including compounds according to Formula (I), (IA), (IB), (II), (IIa), (IIb), (IIc), (IId), (IIe), (IIf), (IIg), or (III) were prepared and administered at dose of and 0.01 mpk.

[3] = Encapsulation efficiency of RNA in nanoparticle compositions (RIBOGREEN assay); type: physicochemical
Summary of the method: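 Lipid nanoparticles (ionisable lipid:DSPC:cholesterol:PEG-DMG 50:10:38.5:1.5 mol %) carrying N1-methylpseudouridine luciferase or hEPO mRNA diluted to about 5 μg/mL in TE, pH 7.5, with or without 2% Triton X-100, 15 min at 37° C. RiboGreen fluorescence (ex ~480, em ~520 nm) blank-subtracted; free RNA = intact/disrupted signal.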

modified luciferase = experiment: Luciferase expression in liver, lung, spleen and femur 6 hours after intravenous administration to mice; type: in vivo; conditions: 6 hours after intravenous 0.5 mpk, mice
Summary of the method: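 Nanoparticle formulations of the modified luciferase were given intravenously to mice (n=3) at 0.5 mpk. Bioluminescence was measured after 6 hours as total light flux. Standard MC3 formulation and PBS run as controls.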

luciferase (Luc) mRNA [4] = experiment: Luciferase expression (whole body bioluminescence) after intravenous administration to mice; type: in vivo; conditions: for Novel lipid/MC3 expression ratio, i.v.: intravenous, luciferase, 6 hr. time point, relative to MC3 formulation
Summary of the method: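 Mice (n=6) received lipid nanoparticle formulations carrying luciferase mRNA intravenously at 0.5 mg/kg. Whole-body bioluminescence was measured at 3, 6 and 24 h. Total flux was taken as area under the curve and expressed relative to a standard MC3 formulation.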

[5] = Table 1A, lipid:DSPC:cholesterol:PEG-DMG 50:10:38.5:1.5 mol %
[6] = Table 1B, formulated with hEPO mRNA
[7] = Table 1D, compositions for subcutaneous administration, # formulated with hEPO mRNA
[8] = Table 1E, compositions for subcutaneous administration

SMILES	Size [1, 5] [nm]	Size [1, 6] [nm]	EE [3, 5] [%]	EE [3, 6] [%]	Size [1, 7] [nm]	Size [1, 8] [nm]	Size ([1]; Table 1C, compositions for subcutaneous administration) [nm]	Novel lipid/MC3 expression ratio, i.m. Luc (luciferase (Luc) mRNA [2]; luciferase)	Total Flux, Liver (modified luciferase)	Total Flux, Lung (modified luciferase)	Total Flux, Spleen (modified luciferase)	Total flux 6 hours after intramuscular administration, 0.01 mpk Dose (luciferase (Luc) mRNA [2]) [p/s]	Novel lipid/MC3 expression ratio, i.v. (luciferase (Luc) mRNA [4])	AUC (luciferase (Luc) mRNA [4]; intravenous administration (Table 3D)) [p/s*h]	AUC (luciferase (Luc) mRNA [2]; luciferase, intramuscular administration (Table 3H)) [p/s*h]
CCCCCCCCCOC(=O)CCCCCCCN(CCCCCCCC(=O)OC(CCCCCCCC)CCCCCCCC)CCCC(=O)NC [Compound 239, Heptadecan-9-yl 8-((4-(methylamino)-4-oxobutyl)(8-(nonyloxy)-8-oxooctyl)amino)octanoate]	55.8	71.3	90.42	82.6				0.01							
CCCCCCCCCOC(=O)CCCCCCCN(CCCCCCCC(=O)OC(CCCCCCCC)CCCCCCCC)CCCNC(=S)N(C)C [Compound 111, Heptadecan-9-yl 8-((3-(3,3-dimethylthioureido)propyl)(8-(nonyloxy)-8-oxooctyl)amino)octanoate]	116.7	93.3		91.23	94.5	88.9			4.83E+09	2.57E+07	2.44E+08	1.58E+08			
CCCCCCCCCOC(=O)CCCCCCCN(CCCCCCCC(=O)OC(CCCCCCCC)CCCCCCCC)CCCNC(=O)CO [Compound 198, Heptadecan-9-yl 8-((3-(2-hydroxyacetamido)propyl)(8-(nonyloxy)-8-oxooctyl)amino)octanoate]	84.2		99.5					0.52					0		
CCCCCCCCCOC(=O)CCCCCCCN(CCCCCCCC(=O)OC(CCCCCCCC)CCCCCCCC)CCCNC(=O)OC [Compound 181, Heptadecan-9-yl 8-((3-((methoxycarbonyl)amino)propyl)(8-(nonyloxy)-8-oxooctyl)amino)octanoate]	78.7		88.9					0.97					0.27		
CCCCCCCCCOC(=O)CCCCCCCN(C)CCCCCCCC(=O)OC(CCCCCCCC)CCCCCCCC [Compound 123, Heptadecan-9-yl 8-(methyl(8-(nonyloxy)-8-oxooctyl)amino)octanoate]									2.50E+08	1.78E+06	4.04E+06	1.08E+07			
CCCCCCCCC(C)OC(=O)CCCCCN(CCO)CCCCCCCC(=O)OC(CCCCCCCC)CCCCCCCC (stereo not shown) [Compound 122, Heptadecan-9-yl 8-((6-(decan-2-yloxy)-6-oxohexyl)(2-hydroxyethyl)amino)octanoate]	69.3	70.2		96.27			80.2		2.63E+09	2.77E+07	1.56E+07	9.19E+07			
CCCCCCCCCOC(=O)CCCCCCCN(CCCN)CCCCCCCC(=O)OC(CCCCCCCC)CCCCCCCC [Compound 121, Heptadecan-9-yl 8-((3-aminopropyl)(8-(nonyloxy)-8-oxooctyl)amino)octanoate]												1.06E+06			

The next lines start with results.

Size [1, 5] [nm]	Size [1, 6] [nm]	EE [3, 5] [%]	EE [3, 6] [%]	Size [1, 7] [nm]	Size [1, 8] [nm]	Size ([1]; Table 1C, compositions for subcutaneous administration) [nm]	SMILES	Novel lipid/MC3 expression ratio, i.m. Luc (luciferase (Luc) mRNA [2]; luciferase)	Total Flux, Liver (modified luciferase)	Total Flux, Lung (modified luciferase)	Total Flux, Spleen (modified luciferase)	Total flux 6 hours after intramuscular administration, 0.01 mpk Dose (luciferase (Luc) mRNA [2]) [p/s]	Novel lipid/MC3 expression ratio, i.v. (luciferase (Luc) mRNA [4])	AUC (luciferase (Luc) mRNA [4]; intravenous administration (Table 3D)) [p/s*h]	AUC (luciferase (Luc) mRNA [2]; luciferase, intramuscular administration (Table 3H)) [p/s*h]
68.1							CCCCCCCCCOC(=O)CCCCCCCN(CCCCCCCC(=O)OC(CCCCCCCC)CCCCCCCC)C(CO)CO [Compound 156, Heptadecan-9-yl 8-((1,3-dihydroxypropan-2-yl)(8-(nonyloxy)-8-oxooctyl)amino)octanoate]	0.06	6.51E+08	1.92E+06	1.82E+07		0.60	1.170E+011	
95.1	88.9		95.20	87.4	93.3		CCCC/C=C\CCC(CC/C=C\CCCC)OC(=O)CCCCCCCN(CCO)CCCCCCCC(=O)OCCCCCCCCC [Compound 60, (5Z,12Z)-Heptadeca-5,12-dien-9-yl 8-((2-hydroxyethyl)(8-(nonyloxy)-8-oxooctyl)amino)octanoate]		1.54E+09	6.25E+06	7.12E+06	9.48E+07			
65.1							CCCCCCCCCOC(=O)CCCCCCCN(CCCCCCCC(=O)OC(CCCCCCCC)CCCCCCCC)CCCn1ccc(=O)[nH]c1=O [Compound 114, Heptadecan-9-yl 8-((3-(2,4-dioxo-3,4-dihydropyrimidin-1(2H)-yl)propyl)(8-(nonyloxy)-8-oxooctyl)amino)octanoate]					3.31E+06			
104.1					73.9		CCCCCCCCC(CCCCCCCC)OC(=O)CCCCCCCN(CCO)CCCCCC(=O)OC(CCCCCCCC)C1CC1 (stereo not shown) [Compound 128, Heptadecan-9-yl 8-((6-((1-cyclopropylnonyl)oxy)-6-oxohexyl)(2-hydroxyethyl)amino)octanoate]	0.99	5.98E+09	2.16E+07	7.09E+07				
82.1					80.0		CCCC/C=C\CCC(CC/C=C\CCCC)OC(=O)CCCCCCCN(CCO)CCCCCC(=O)OCCCCCCCCCCC [Compound 61, (5Z,12Z)-heptadeca-5,12-dien-9-yl 8-((2-hydroxyethyl)(6-oxo-6-(undecyloxy)hexyl)amino)octanoate]		6.37E+08	3.56E+06	1.61E+07				2.30E+09
96.0							CCCCCCCCCOC(=O)CCCCCCCN(CCCCCCCC(=O)OC(CCCCCCCC)CCCCCCCC)CCCN/C(=C/[N+](=O)[O-])NC [Compound 170, Heptadecan-9-yl (E)-8-((3-((1-(methylamino)-2-nitrovinyl)amino)propyl)(8-(nonyloxy)-8-oxooctyl)amino)octanoate]	5.3					0.02		
66.9	93.7	97.81	97.6	87.0			CCCCCCCCCOC(=O)CCCCCCCN(CCCCCCCC(=O)OC(CCCCCCCC)CCCCCCCC)CCCN/C(=N/S(C)(=O)=O)N(C)C [Compound 233, Heptadecan-9-yl (Z)-8-((3-(3,3-dimethyl-2-(methylsulfonyl)guanidino)propyl)(8-(nonyloxy)-8-oxooctyl)amino)octanoate]	0.05							
87.4							CCCCCCCCCOC(=O)CCCCCCCN(CCCCCCCC(=O)OC(CCCCCCCC)CCCCCCCC)CCCNc1c(N(C)C)c(=O)c1=O [Compound 169, Heptadecan-9-yl 8-((3-((2-(dimethylamino)-3,4-dioxocyclobut-1-en-1-yl)amino)propyl)(8-(nonyloxy)-8-oxooctyl)amino)octanoate]	3.3					0.11		
77.2					71.8		CCCCCCCCCOC(=O)CCCCCCCN(CCCCCCCC(=O)OC(CCCCCCCC)CCCCCCCC)CC(O)CO (stereo not shown) [Compound 69, Heptadecan-9-yl 8-((2,3-dihydroxypropyl)(8-(nonyloxy)-8-oxooctyl)amino)octanoate]	0.27	2.24E+08	7.34E+05	2.54E+06	8.83E+06	0.30		
